Experimental data published in patent US20230089557A1, “METHODS OF TREATING DLBCL USING BTK INHIBITORS AND COMBINATIONS THEREOF” (BEIGENE SWITZERLAND GMBH, priority 2020, published 2023).

Tested on: R/R non-GCB DLBCL
Assay: Compound 1 in combination with anti-CD20 antibody in patients with R/R non-GCB DLBCL
Assay type: in vivo, human
Conditions: for unadjusted ORR: non-GCB DLBCL
Description: A total of 121 patients with R/R non-GCB DLBCL were recruited in four Compound 1 treatment studies that were conducted at a similar time period. Two of the four studies were Compound 1 monotherapy (n=79) and two were Compound 1 combined with an anti-CD20 antibody therapy (n=42). Similar inclusion and exclusion criteria and response evaluation criteria were used across all studies. Fifty-six non-GCB patients were further subtyped by gene expression profiling (GEP) using the HTG EdgeSeq DLBCL Cell of Origin Assay. The expression of approximately 90 lymphoma-associated genes from the HTG GEP assay were analyzed by R package limma for correlation with response to Compound 1 treatment. Seventy-seven patient samples were tested by next-generation sequencing (NGS) with a panel of genes. Chi-square test was used to evaluate the correlation between mutations and the objective response rate (ORR).
Combination therapy schedule 1: Compound 1 was administered orally every day in each cycle at 160 mg BID in 28-day cycles, in combination with obinutuzumab, in patients with R/R non-GCB DLBCL. Obinutuzumab was administered for up to 6 cycles consistent with the U.S. label regimen (100 mg at Day 1 Cycle 1, 1000 mg at Day 8 and Day 15, 900 mg at Day 2 Cycle 1 followed by 1000 mg on day one of cycles 2-6).
Combination therapy schedule 2: Compound 1 was administrated orally every day in each cycle at 160 mg BID in 28-day cycles, in combination with rituximab, in patients with R/R non-GCB DLBCL. Rituximab was administered at 375 mg/m2 intravenously on Cycle 1 Days 1, 8, 15, 22, and on Day 1 of Cycles 4, 6, 8, 10. Compound 1 was administered at least 30 minutes prior to the initiation of the rituximab infusion.
42 patients with non-GCB DLBCL were subjected to Compound 1 plus anti-CD20 antibody Combination therapy schedule 1 or 2.

[1] = combination therapy Total (N = 42), ABC Subtype of DLBCL Patients
[2] = combination therapy Total (N = 42), CD79B ITAM_Mut
[3] = combination therapy Total (N = 42), CD79B ITAM_WT
[4] = combination therapy Total (N = 42), CD79B_Mut
[5] = combination therapy Total (N = 42), CD79B_WT
[6] = combination therapy Total (N = 42), MYD88_L265P
[7] = combination therapy Total (N = 42), MYD88_L265P/CD79B_Mut
[8] = combination therapy Total (N = 42), MYD88_WT
[9] = combination therapy Total (N = 42), NOTCH1_Mut
[10] = combination therapy Total (N = 42), NOTCH1_WT
[11] = combination therapy Total (N = 42), Non-GCB DLBCL Patients
[12] = combination therapy Total (N = 42), Non-GCB DLBCL Patients with Sequence Available
[13] = combination therapy Total (N = 42), Other (not MYD88_L265P/CD79B_Mut)
[14] = combination therapy Total (N = 42), Patients with Sequence Available
[15] = plus obinutuzumab (N = 22), ABC Subtype of DLBCL Patients
[16] = plus obinutuzumab (N = 22), CD79B ITAM_Mut
[17] = plus obinutuzumab (N = 22), CD79B ITAM_WT
[18] = plus obinutuzumab (N = 22), CD79B_Mut
[19] = plus obinutuzumab (N = 22), CD79B_WT
[20] = plus obinutuzumab (N = 22), MYD88_L265P
[21] = plus obinutuzumab (N = 22), MYD88_L265P/CD79B_Mut
[22] = plus obinutuzumab (N = 22), MYD88_WT
[23] = plus obinutuzumab (N = 22), NOTCH1_Mut
[24] = plus obinutuzumab (N = 22), NOTCH1_WT
[25] = plus obinutuzumab (N = 22), Non-GCB DLBCL Patients
[26] = plus obinutuzumab (N = 22), Non-GCB DLBCL Patients with Sequence Available
[27] = plus obinutuzumab (N = 22), Other (not MYD88_L265P/CD79B_Mut)
[28] = plus obinutuzumab (N = 22), Patients with Sequence Available
[29] = plus rituximab (N = 20), ABC Subtype of DLBCL Patients
[30] = plus rituximab (N = 20), CD79B ITAM_Mut
[31] = plus rituximab (N = 20), CD79B ITAM_WT
[32] = plus rituximab (N = 20), CD79B_Mut
[33] = plus rituximab (N = 20), CD79B_WT
[34] = plus rituximab (N = 20), MYD88_L265P
[35] = plus rituximab (N = 20), MYD88_L265P/CD79B_Mut
[36] = plus rituximab (N = 20), MYD88_WT
[37] = plus rituximab (N = 20), NOTCH1_Mut
[38] = plus rituximab (N = 20), NOTCH1_WT
[39] = plus rituximab (N = 20), Non-GCB DLBCL Patients
[40] = plus rituximab (N = 20), Non-GCB DLBCL Patients with Sequence Available
[41] = plus rituximab (N = 20), Other (not MYD88_L265P/CD79B_Mut)
[42] = plus rituximab (N = 20), Patients with Sequence Available

Question: What does the source list for `C=CC(=O)N1CCC([C@@H]2CCNc3c(C(N)=O)c(-c4ccc(Oc5ccccc5)cc4)nn32)CC1` [Compound 1, (S)-7-(1-acryloylpiperidin-4-yl)-2-(4-phenoxyphenyl)-4,5,6,7-tetra-hydropyrazolo[1,5-a]pyrimidine-3-carboxamide]?
Answer: ORR (GEP-confirmed activated B-cell DLBCL, first of the two combo-therapies (obinutuzumab)): 50%; ORR (GEP-confirmed activated B-cell DLBCL, second of the two combo-therapies (rituximab)): 40%; ORR [1]: 45.5; Response/Patients [1]: 5/11; ORR [2]: 83.3; Response/Patients [2]: 5/6; Difference in ORR (95% CI) (combination therapy Total (N = 42), CD79B ITAM_Mut vs CD79B ITAM_WT): 61.1; ORR [3]: 22.2; Response/Patients [3]: 6/27; ORR [4]: 75.0; Response/Patients [4]: 6/8; Difference in ORR (95% CI) (combination therapy Total (N = 42), CD79B_Mut vs CD79B_WT): 55.0; ORR [5]: 20.0; Response/Patients [5]: 5/25; ORR [6]: 66.7; Response/Patients [6]: 4/6; Difference in ORR (95% CI) (combination therapy Total (N = 42), MYD88_L265P vs MYD88_WT): 40.7; ORR [7]: 75.0; Response/Patients [7]: 3/4; Difference in ORR (95% CI) (combination therapy Total (N = 42), MYD88_L265P/CD79B_Mut vs Other): 47.4; ORR [8]: 25.9; Response/Patients [8]: 7/27; ORR [9]: 40.0; Response/Patients [9]: 2/5; Difference in ORR (95% CI) (combination therapy Total (N = 42), NOTCH1_Mut vs NOTCH1_WT): 7.9; ORR [10]: 32.1; Response/Patients [10]: 9/28; ORR [11]: 28.6; Response/Patients [11]: 12/42; ORR [12]: 33.3; Response/Patients [12]: 11/33; ORR [13]: 27.6; Response/Patients [13]: 8/29; ORR [14]: 35.3; Response/Patients [14]: 12/34; unadjusted ORR (first of the two combo-therapies (obinutuzumab)): 22.7%; unadjusted ORR (second of the two combo-therapies (rituximab)): 35%; ORR [15]: 50.0; Response/Patients [15]: 3/6; ORR [16]: 100.0; Response/Patients [16]: 3/3; Difference in ORR (95% CI) (plus obinutuzumab (N = 22), CD79B ITAM_Mut vs CD79B ITAM_WT, in %): 91.7; ORR [17]: 8.3; Response/Patients [17]: 1/12; ORR [18]: 100.0; Response/Patients [18]: 3/3; Difference in ORR (95% CI) (plus obinutuzumab (N = 22), CD79B_Mut vs CD79B_WT, in %): 91.7; ORR [19]: 8.3; Response/Patients [19]: 1/12; ORR [20]: 100.0; Response/Patients [20]: 3/3; Difference in ORR (95% CI) (plus obinutuzumab (N = 22), MYD88_L265P vs MYD88_WT, in %): 91.7; ORR [21]: 100.0; Response/Patients [21]: 3/3; Difference in ORR (95% CI) (plus obinutuzumab (N = 22), MYD88_L265P/CD79B_Mut vs Other, in %): 91.7; ORR [22]: 8.3; Response/Patients [22]: 1/12; ORR [23]: 66.7; Response/Patients [23]: 2/3; Difference in ORR (95% CI) (plus obinutuzumab (N = 22), NOTCH1_Mut vs NOTCH1_WT): 50.0; ORR [24]: 16.7; Response/Patients [24]: 2/12; ORR [25]: 22.7; Response/Patients [25]: 5/22; ORR [26]: 26.7; Response/Patients [26]: 4/15; ORR [27]: 8.3; Response/Patients [27]: 1/12; ORR [28]: 31.3; Response/Patients [28]: 5/16; ORR [29]: 40.0; Response/Patients [29]: 2/5; ORR [30]: 66.7; Response/Patients [30]: 2/3; Difference in ORR (95% CI) (plus rituximab (N = 20), CD79B ITAM_Mut vs CD79B ITAM_WT): 33.3; ORR [31]: 33.3; Response/Patients [31]: 5/15; ORR [32]: 60.0; Response/Patients [32]: 3/5; Difference in ORR (95% CI) (plus rituximab (N = 20), CD79B_Mut vs CD79B_WT): 29.2; ORR [33]: 30.8; Response/Patients [33]: 4/13; ORR [34]: 33.3; Response/Patients [34]: 1/3; Difference in ORR (95% CI) (plus rituximab (N = 20), MYD88_L265P vs MYD88_WT): −6.7; ORR [35]: 0.0; Response/Patients [35]: 0/1; Difference in ORR (95% CI) (plus rituximab (N = 20), MYD88_L265P/CD79B_Mut vs Other): −41.2; ORR [36]: 40.0; Response/Patients [36]: 6/15; ORR [37]: 0.0; Response/Patients [37]: 0/2; Difference in ORR (95% CI) (plus rituximab (N = 20), NOTCH1_Mut vs NOTCH1_WT): −43.8; ORR [38]: 43.8; Response/Patients [38]: 7/16; ORR [39]: 35.0; Response/Patients [39]: 7/20; ORR [40]: 38.9; Response/Patients [40]: 7/18; ORR [41]: 41.2; Response/Patients [41]: 7/17; ORR [42]: 38.9; Response/Patients [42]: 7/18
